Experiments:
rats = test: Histopathological examination of nostrils, nasal cavity and pharynx (local tolerability); type: in vivo; conditions: dose as high as 12.5 mg/kg in rats, intranasal
Source text: Subsequent to the last blood sampling animals were sacrificed by induction of a deep anesthesia with isoflurane followed by rapid exsanguinations. Then both nostrils and nasal cavity including pharynx were collected from all animals and preserved in neutral buffered formaldehyde (4%) for histopathological examination. Afterwards, tissues for the histopathological investigation were trimmed and embedded in paraplast®. The slides were HE (hematoxylin and eosin)-stained and histopathologically examined.

SARS-Covid 2 virus = conditions: cited Monash lab experiments; cited from earlier work
[1] = Particle size distribution (PSD) by laser diffraction, Malvern Mastersizer 2000/3000; type: physicochemical
Method: The mean particle size distribution is preferably obtained by laser diffraction. In a laser diffraction measurement, a laser beam passes through a dispersed particulate sample and the angular variation in intensity of the scattered light is measured. Large particles scatter light at small angles relative to the laser beam and small particles scatter light at large angles. The angular scattering intensity data is then analyzed to calculate the size of the particles that created the scattering pattern using the Mie theory of light scattering. The particle size is reported as a volume equivalent sphere diameter. The folded optical design in the Mastersizer 3000 (from Malvern Panalytical), which was in particular used for the measurements, provides a particle size range from 10 nm up to 3.5 mm using a single optical measurement path. The Mastersizer 3000 uses a sequential combination of measurements with red and blue light sources to measure across the entire particle size range.
The pharmaceutically active agent is grinded in a mortar/pestle system to the appropriate particles size prior to its use. Afterwards the Particles Size Distribution (PSD) is measured using a Malvern Master Sizer 3000. The samples after grinding are stored in tightly closed brown glass bottles.
The pharmaceutically active agent is micronised to the desired particles size using a jet mill (e.g. from SpiraNo 100 from MCKO, Germany) and screw dosing system (e.g. ZD 9 from Three-Tec Ltd., Seon, Switzerland). The diameter of the injection nozzle is selected at about 6 mm, the milling gas pressure about 2 bar, the milling temperature is about 18° C. The duration of the process is about 5-10 minutes depending on the particle size of the non-micronised active agent. Afterwards the PSD is measured with a Malvern Master Sizer 3000. The samples after micronisation are stored in tightly closed brown glass bottles.
Afterwards the PSD is measured with a Malvern Master Sizer 3000. In addition, the Zetapotential, an index for the stability of the multiparticulate suspensions is measured using a Zeta Sizer (e.g. Nano ZS) from Malvern Instruments (Dynamic Laser diffraction).
In some embodiments, the PSD of the pharmaceutically active agent, provided for the preparation of its multiparticulate suspension according to procedure 1 and procedure 2 (grinded/micronised), was measured using a Malvern Mastersizer 2000 or 3000 (in water as dispersion medium, stirrer speed 1500 rpm, Mie presentation) to give the following results:
In some embodiments, the PSD of the pharmaceutically active agent in multiparticulate suspension prepared according to procedure 3 (wet ball milling with Delta Vita 1), procedure 4 (wet ball milling Getzmann/Frewitt), procedure 5 (bulk microsuspension) and procedure 6 (final product) was measured using a Malvern Mastersizer 2000 or 3000 (in water as dispersion medium, stirrer speed 1500 rpm, Mie presentation).

ivermectin
tolerability of the active ingredient (rats): well tolerated | activity against SARS-Covid 2 virus (SARS-Covid 2 virus): active

ivermectin [05KB21.HM00155]
D10 ([1]; API batch after grinding): 2.02 μm | D50 ([1]; API batch after grinding): 6.89 μm | D90 ([1]; API batch after grinding): 32.0 μm

ivermectin [05KB21.HM00170-]
D10 ([1]; API batch after micronisation): 0.97 μm | D50 ([1]; API batch after micronisation): 2.22 μm | D90 ([1]; API batch after micronisation): 4.35 μm

From patent publication US20250064841A1, “Aqueous Composition Comprising Avermectins” (HWI Pharma Services GmbH, priority 2022, published 2025)
